In patent US10407409B2, “6-(5-hydroxy-1H-pyrazol-1-yl)nicotinamide inhibitors of PHD” (Takeda Pharmaceutical Company Limited, priority 2013, dated 2019):

Legend:
[1] = biological target: PHD2 enzyme (residues 181-417) (Homo sapiens (Human), UniProt Q9GZT9); test: Inhibition of PHD enzyme (LC/MS peptide hydroxylation assay); type: biochemical; conditions: PHD2 (residues 181-417) 5 nM, 60 min pre-incubation; -log(IC50), IC50 molar
Summary of the method: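 Hydroxylated peptide quantified by LC/MS after 60 min turnover of 1 uM biotinylated peptide with 2 uM 2-oxoglutarate and 1 mM ascorbate, stopped by excess tight-binding inhibitor. Beforehand, 5 nM enzyme and compound were preincubated 60 min at RT, pH 7.3 HEPES/KCl/TCEP/FeCl2/BSA buffer. Values as pIC50 (−log molar IC50).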

[2] = test system: HIF1a protein in H9c2 rat cardiomyocytes; test: Cell-based HIF-alpha stabilization assay (inhibition of PHD in cells); conditions: Rattus norvegicus, H9c2, 24 h, 24 hrs compound incubation, HIF1a protein by ELISA, read-out: Inhibition of PHD in cells (pEC50) (converted)
Summary of the method: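 HIF1a stabilization was measured by ELISA on lysates of H9c2 rat cardiomyocytes after 24 h exposure to 11 serial compound concentrations, expressed relative to the desferrioxamine maximum. Curve fits gave EC50. EC50pos denotes the concentration producing half the desferrioxamine maximal response.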

PHD2 enzyme (residues 181-417), sequence (Q9GZT9 181-417): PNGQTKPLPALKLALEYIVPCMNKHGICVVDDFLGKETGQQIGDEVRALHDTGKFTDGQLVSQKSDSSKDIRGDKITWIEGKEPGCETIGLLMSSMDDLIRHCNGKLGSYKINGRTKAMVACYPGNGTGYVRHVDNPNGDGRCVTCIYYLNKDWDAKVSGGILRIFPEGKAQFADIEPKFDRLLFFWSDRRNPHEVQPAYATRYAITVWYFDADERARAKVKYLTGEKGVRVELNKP

| Structure (SMILES) | PHD Inhibition (pIC50) [1] | EC50 [2] [nM] |
| --- | --- | --- |
| N#Cc1ccc(-c2cnn(-c3ccc(C(=O)NCCC4CCCO4)cn3)c2O)cc1 (centres unmarked) [Example 241, 6-(4-(4-cyanophenyl)-5-hydroxy-1H-pyrazol-1-yl)-N-(2-(tetrahydrofuran-2-yl)ethyl)nicotinamide] | 7.51 | 437 |
| COc1cc(-c2cnn(-c3ccc(C(=O)N(C)C4CC4)cn3)c2O)ccn1 [Example 243, N-cyclopropyl-6-(5-hydroxy-4-(2-methoxypyridin-4-yl)-1H-pyrazol-1-yl)-N-methylnicotinamide] | 6.9 | 4170 |
| Cc1cc(C#N)ccc1-c1cnn(-c2ccc(C(=O)NC3CC4(COC4)C3)cn2)c1O [Example 244, 6-(4-(4-cyano-2-methylphenyl)-5-hydroxy-1H-pyrazol-1-yl)-N-(2-oxaspiro[3.3]heptan-6-yl)nicotinamide] | 8.4 | 240 |
| Cc1cc(C#N)ccc1-c1cnn(-c2ccc(C(=O)NCCC3CCCO3)cn2)c1O (centres unmarked) [Example 245, 6-(4-(4-cyano-2-methylphenyl)-5-hydroxy-1H-pyrazol-1-yl)-N-(2-(tetrahydrofuran-2-yl)ethyl)nicotinamide] | 8.4 | 240 |
| Cc1cc(C#N)ccc1-c1cnn(-c2ccc(C(=O)N(C)C3CC3)cn2)c1O [Example 246, 6-(4-(4-cyano-2-methylphenyl)-5-hydroxy-1H-pyrazol-1-yl)-N-cyclopropyl-N-methylnicotinamide] | 7.8 | 407 |
| Cc1cc(C#N)ccc1-c1cnn(-c2ccc(C(=O)NCC3CCC(F)(F)CC3)cn2)c1O [Example 247, 6-(4-(4-cyano-2-methylphenyl)-5-hydroxy-1H-pyrazol-1-yl)-N-((4,4-difluorocyclohexyl)methyl)nicotinamide] | 8.2 | 813 |
| COCC1CCN(C(=O)c2ccc(-n3ncc(-c4ccc(C#N)cc4C)c3O)nc2)CC1 [Example 248, 4-(5-hydroxy-1-(5-(4-(methoxymethyl)piperidine-1-carbonyl)pyridin-2-yl)-1H-pyrazol-4-yl)-3-methylbenzonitrile] | 8.3 | 251 |
| COC1CCN(C(=O)c2ccc(-n3ncc(-c4ccc(C#N)cc4C)c3O)nc2)CC1 [Example 249, 4-(5-hydroxy-1-(5-(4-methoxypiperidine-1-carbonyl)pyridin-2-yl)-1H-pyrazol-4-yl)-3-methylbenzonitrile] | 8.3 | 275 |
| Cc1cc(C#N)ccc1-c1cnn(-c2ccc(C(=O)NCCOC(F)(F)F)cn2)c1O [Example 250, 6-(4-(4-cyano-2-methylphenyl)-5-hydroxy-1H-pyrazol-1-yl)-N-(2-(trifluoromethoxy)ethyl)nicotinamide] | 8 | 457 |
| COCCCN(C)C(=O)c1ccc(-n2ncc(-c3ccc(C#N)cc3C)c2O)nc1 [Example 251, 6-(4-(4-cyano-2-methylphenyl)-5-hydroxy-1H-pyrazol-1-yl)-N-(3-methoxypropyl)-N-methylnicotinamide] | 8.2 | 324 |
| COCC1CCN(C(=O)c2ccc(-n3ncc(-c4ccc(C#N)cc4C)c3O)nc2)C1 (centres unmarked) [Example 252, 4-(5-hydroxy-1-(5-(3-(methoxymethyl)pyrrolidine-1-carbonyl)pyridin-2-yl)-1H-pyrazol-4-yl)-3-methylbenzonitrile] | 8.3 | 263 |
| COc1cc(-c2cnn(-c3ccc(C(=O)NCC4CCOCC4)cn3)c2O)ccc1C#N [Example 253, 6-(4-(4-cyano-3-methoxyphenyl)-5-hydroxy-1H-pyrazol-1-yl)-N-((tetrahydro-2H-pyran-4-yl)methyl)nicotinamide] | 8.3 | 5620 |
| COc1cc(-c2cnn(-c3ccc(C(=O)NCC4CCOCC4)cn3)c2O)c(F)cn1 [Example 254, 6-(4-(5-fluoro-2-methoxypyridin-4-yl)-5-hydroxy-1H-pyrazol-1-yl)-N-((tetrahydro-2H-pyran-4-yl)methyl)nicotinamide] | 8 | 2750 |
| COc1nccc(-c2cnn(-c3ccc(C(=O)NCC4CCOCC4)cn3)c2O)c1OC [Example 255, 6-(4-(2,3-dimethoxypyridin-4-yl)-5-hydroxy-1H-pyrazol-1-yl)-N-((tetrahydro-2H-pyran-4-yl)methyl)nicotinamide] | 7.6 | 1450 |

Second part, led by results:

| PHD Inhibition (pIC50) [1] | Structure (SMILES) | EC50 [2] [nM] |
| --- | --- | --- |
| 7.44 | N#Cc1ccc(-c2cnn(-c3ccc(C(=O)N[C@H]4CC[C@@H](O)C4)cn3)c2O)cc1 [Example 258, 6-(4-(4-cyanophenyl)-5-hydroxy-1H-pyrazol-1-yl)-N-((1s,3r)-3-hydroxycyclopentyl)nicotinamide] | 813 |
| 7.39 | N#Cc1ccc(-c2cnn(-c3ccc(C(=O)N[C@H]4CC[C@H](O)C4)cn3)c2O)cc1 [Example 259, 6-(4-(4-cyanophenyl)-5-hydroxy-1H-pyrazol-1-yl)-N-((1s,3s)-3-hydroxycyclopentyl)nicotinamide] | 1000 |
| 7.39 | CC1(CNC(=O)c2ccc(-n3ncc(-c4ccc(C#N)cc4)c3O)nc2)COC1 [Example 261, 6-(4-(4-cyanophenyl)-5-hydroxy-1H-pyrazol-1-yl)-N-((3-methyloxetan-3-yl)methyl)nicotinamide] | 1120 |
| 7.38 | CC1CC1NC(=O)c1ccc(-n2ncc(-c3ccc(C#N)cc3)c2O)nc1 (centres unmarked) [Example 262, 6-(4-(4-cyanophenyl)-5-hydroxy-1H-pyrazol-1-yl)-N-(2-methylcyclopropyl)nicotinamide] | 525 |
| 7.22 | N#Cc1ccc(-c2cnn(-c3ccc(C(=O)NCC4(F)CCCCC4)cn3)c2O)cc1 [Example 263, 6-(4-(4-cyanophenyl)-5-hydroxy-1H-pyrazol-1-yl)-N-((1-fluorocyclohexyl)methyl)nicotinamide] | 1230 |
| 6.99 | N#Cc1ccc(-c2cnn(-c3ccc(C(=O)NCC4CC(F)(F)C4)cn3)c2O)cc1 [Example 264, 6-(4-(4-cyanophenyl)-5-hydroxy-1H-pyrazol-1-yl)-N-((3,3-difluorocyclobutyl)methyl)nicotinamide] | 1620 |
| 6.77 | N#Cc1ccc(-c2cnn(-c3ccc(C(=O)NC4CC(F)(F)C4)cn3)c2O)cc1 [Example 265, 6-(4-(4-cyanophenyl)-5-hydroxy-1H-pyrazol-1-yl)-N-(3,3-difluorocyclobutyl)nicotinamide] | 6610 |
| 7.23 | CCNC(=O)c1ccc(-n2ncc(-c3ccc(C#N)cc3)c2O)nc1 [Example 266, 6-(4-(4-cyanophenyl)-5-hydroxy-1H-pyrazol-1-yl)-N-ethylnicotinamide] | 1910 |
| 7.36 | CCCNC(=O)c1ccc(-n2ncc(-c3ccc(C#N)cc3)c2O)nc1 [Example 267, 6-(4-(4-cyanophenyl)-5-hydroxy-1H-pyrazol-1-yl)-N-propylnicotinamide] | 708 |
| 6.32 | CN(C)CCNC(=O)c1ccc(-n2ncc(-c3ccc(C#N)cc3)c2O)nc1 [Example 268, 6-(4-(4-cyanophenyl)-5-hydroxy-1H-pyrazol-1-yl)-N-(2-(dimethylamino)ethyl)nicotinamide] | 1950 |
| 6.82 | CN(C)CCCNC(=O)c1ccc(-n2ncc(-c3ccc(C#N)cc3)c2O)nc1 [Example 269, 6-(4-(4-cyanophenyl)-5-hydroxy-1H-pyrazol-1-yl)-N-(3-(dimethylamino)propyl)nicotinamide] | 1950 |
| 7.34 | CN1CCC(NC(=O)c2ccc(-n3ncc(-c4ccc(C#N)cc4)c3O)nc2)CC1 [Example 270, 6-(4-(4-cyanophenyl)-5-hydroxy-1H-pyrazol-1-yl)-N-(1-methylpiperidin-4-yl)nicotinamide] | 1000 |
| 6.98 | CN1CCC(CNC(=O)c2ccc(-n3ncc(-c4ccc(C#N)cc4)c3O)nc2)CC1 [Example 271, 6-(4-(4-cyanophenyl)-5-hydroxy-1H-pyrazol-1-yl)-N-((1-methylpiperidin-4-yl)methyl)nicotinamide] | 1550 |
| 7.06 | CNC(=O)c1cnc(-n2ncc(-c3ccc(C#N)cc3)c2O)cc1C [Example 273, 6-(4-(4-cyanophenyl)-5-hydroxy-1H-pyrazol-1-yl)-N,4-dimethylnicotinamide] | 9330 |
| 7.03 | CCNC(=O)c1cnc(-n2ncc(-c3ccc(C#N)cc3)c2O)cc1C [Example 274, 6-(4-(4-cyanophenyl)-5-hydroxy-1H-pyrazol-1-yl)-N-ethyl-4-methylnicotinamide] | 6460 |
| 7.03 | Cc1cc(-n2ncc(-c3ccc(C#N)cc3)c2O)ncc1C(=O)NC1CC1 [Example 275, 6-(4-(4-cyanophenyl)-5-hydroxy-1H-pyrazol-1-yl)-N-cyclopropyl-4-methylnicotinamide] | 3800 |
| 6.89 | Cc1cc(-n2ncc(-c3ccc(C#N)cc3)c2O)ncc1C(=O)N[C@H]1CCOC1 [Example 277, (S)-6-(4-(4-cyanophenyl)-5-hydroxy-1H-pyrazol-1-yl)-4-methyl-N-(tetrahydrofuran-3-yl)nicotinamide] | 7080 |
